We go through twelve compounds from article PMC9460781, “In Vitro and In Silico Study of the α-Glucosidase and Lipase Inhibitory Activities of Chemical Constituents from Piper cumanense (Piperaceae) and Synthetic Analogs” (Plants, 2022).

In brackets after ≈: the same amount, converted by molar mass.

Series [1] concerns the target T1, α-glucosidase (AG) type I from Saccharomyces cerevisiae (Saccharomyces cerevisiae, UniProt P53341).
T1 construct: purchased Sigma-Aldrich L-SLBX6245 (printed); host or cells: Saccharomyces cerevisiae
Put plainly: Kinetic study on AG (Ki, type of inhibition). Type of series: biochemical. The following applies: for α-Glucosidase Inhibition Type: Lineweaver–Burk, abbreviated M, NC in Table S1; for Ki: nonlinear regression of enzyme inhibition kinetics. The source says:
(§1) The enzymes used in this study were pancreatic lipase type II (PL) from porcine pancreas (100–400 units/mg protein, L-SLBD2433V, EC. 3.1.1.3, Sigma-Aldrich, San Luis, MO, USA) and α-glucosidase (AG) type I from Saccharomyces cerevisiae (lyophilized powder, ≥10 units/mg protein, L-SLBX6245, EC 3.2.1.20, Sigma-Aldrich, San Luis, MO, USA). 4-nitrophenyl dodecanoate (Sigma-Aldrich, San Luis, MO, USA) was used as the substrate for PL while 4-nitrophenyl-α-D-glucopyranoside (Sigma-Aldrich, San Luis, MO, USA) for AG. Absorbance readings were performed in a Multiskan GO microplate reader (Thermo Scientific®, Waltham, MA, USA).
(§2) Kinetic studies to determine the type of inhibition were performed with PL and AG using a methodology the same as that described in the inhibitory activity assays. […] Five substrate concentrations were used for each of the enzymes in the range between 12.5 to 200 μM p-nitrophenyl dodecanoate for PL and 25 to 800 μM for p-nitrophenyl-α-D-glucopyranoside in AG. Kinetic experiments were performed in triplicate in two independent experiments. Inhibition constants (Ki) were calculated from (substrate) vs reaction rate curves using nonlinear regression of the enzyme inhibition kinetic function. Additionally, the inhibition mechanism was graphically determined by applying the double reciprocal Lineweaver–Burk regression function.

For series [2], the target named is T2, pancreatic lipase type II (PL) from porcine pancreas (Sus scrofa, UniProt P00591).
T2 construct: purchased Sigma-Aldrich L-SLBD2433V (printed); host or cells: porcine pancreas
T2 sequence (P00591 1-450): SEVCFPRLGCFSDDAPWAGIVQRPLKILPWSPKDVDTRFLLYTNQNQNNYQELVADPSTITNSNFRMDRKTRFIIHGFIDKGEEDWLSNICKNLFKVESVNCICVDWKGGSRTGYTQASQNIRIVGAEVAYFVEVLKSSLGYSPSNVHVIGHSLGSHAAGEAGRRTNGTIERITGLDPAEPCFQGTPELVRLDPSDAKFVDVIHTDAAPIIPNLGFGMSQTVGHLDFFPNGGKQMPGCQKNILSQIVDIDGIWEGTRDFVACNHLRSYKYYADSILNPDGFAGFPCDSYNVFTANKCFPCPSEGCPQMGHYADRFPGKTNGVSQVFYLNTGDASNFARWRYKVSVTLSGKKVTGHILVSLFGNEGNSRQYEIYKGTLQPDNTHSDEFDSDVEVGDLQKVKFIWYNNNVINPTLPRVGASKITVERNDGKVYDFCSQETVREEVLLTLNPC
Kind of series: Kinetic study on PL (Ki, type of inhibition). The format is biochemical. Conditions: for Pancreatic Lipase Inhibition Type: Lineweaver–Burk, abbreviated UC, C, NC, M in Table S1; for Ki: nonlinear regression of enzyme inhibition kinetics.
Description: as §1, §2

Series [3] concerns the target T1, α-glucosidase (AG) type I from Saccharomyces cerevisiae. Kind of series: biochemical. Conditions: α-Glucosidase IC50, p-nitrophenyl-α-D-glucopyranoside substrate, pH 7.2, 37 °C; NA: not active.
Description: as §1
Determination of enzyme inhibition of the compounds identified against the AG enzyme was carried out following the methodology described in the literature with some modifications. The concentrations were evaluated for compounds from 300 to 6.25 µM. […] In 96-well boxes, 10 μL of stock solution of each extract or compound, 20 μL of GA solution (0.5 U/mL), and 200 μL of phosphate buffer (0.1 M, pH: 7.2) were mixed. The mixture obtained was pre-incubated for 30 min at 37 °C. […] After the reaction time, the absorbance at 405 nm was measured. […] Statistically significant differences in the biological effects of inhibitors (compounds) were analyzed and compared using ANOVA, supplemented by Tukey HSD post hoc analysis. […]

In series [4] the target is T2, pancreatic lipase type II (PL) from porcine pancreas. Kind of series: PL inhibition assay. The format is biochemical. Conditions: p-nitrophenyl dodecanoate substrate, pH 8.4, 37 °C; NA: not active.
Description: as §1
Determination of enzymatic inhibition of the identified compounds against the PL enzyme was carried out following the methodology described in the literature with some modifications. The concentrations were evaluated for compounds from 300 to 6.25 µM. […] In 96-well boxes, 30 μL of extract or compound stock solution, 30 μL of PL solution (200 U/mL), and 160 μL of Tris-HCl buffer (0.1 M, pH: 8.4) were mixed. The mixture obtained was pre-incubated for 30 min at 37 °C. Subsequently, 30 μL of p-nitrophenyl dodecanoate (100 μM) were added to complete a final volume of 250 μL and incubated for 40 min at 37 °C. After the incubation time, the absorbance was measured at 405 nm. All assays were performed in triplicate in two independent assays. IC50 values were estimated by nonlinear regression analysis. Statistically significant differences in biological effects of inhibitors (compounds) were analyzed and compared using the ANOVA test, supplemented by Tukey HSD post hoc analysis. All reported data corresponded to the average of three repetitions ± SD, and the statistical significance considered was p < 0.05.

The subject of the next series is chemokine receptor CCR5. Also noted: method as in PMID 14561515. Conditions: cited from earlier work.
The next series relates to AG. The following applies: cited from earlier work.

T1 sequence (P53341 whole entry): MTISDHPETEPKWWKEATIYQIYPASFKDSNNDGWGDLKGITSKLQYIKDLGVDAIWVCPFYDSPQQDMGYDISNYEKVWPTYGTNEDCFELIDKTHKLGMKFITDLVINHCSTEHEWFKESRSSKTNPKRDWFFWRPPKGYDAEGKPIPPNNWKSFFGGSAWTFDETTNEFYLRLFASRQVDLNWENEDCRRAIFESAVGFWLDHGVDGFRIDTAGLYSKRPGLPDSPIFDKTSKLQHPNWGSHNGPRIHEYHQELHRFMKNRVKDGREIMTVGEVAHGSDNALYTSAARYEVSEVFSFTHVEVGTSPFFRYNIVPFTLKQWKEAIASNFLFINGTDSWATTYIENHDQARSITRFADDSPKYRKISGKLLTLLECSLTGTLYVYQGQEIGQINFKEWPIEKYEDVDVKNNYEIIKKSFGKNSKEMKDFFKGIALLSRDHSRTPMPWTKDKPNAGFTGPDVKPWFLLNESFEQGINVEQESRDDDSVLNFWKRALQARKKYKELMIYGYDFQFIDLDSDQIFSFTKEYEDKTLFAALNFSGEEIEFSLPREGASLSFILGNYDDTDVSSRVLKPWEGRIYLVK

Broadly, the Ki is the equilibrium dissociation constant of an inhibitor or competing ligand from its target. Higher therefore signals lower affinity. As a reminder, the IC50 is the concentration that inhibits the measured activity by half. Turning to `CC(C)=CCCC(C)=CC(O)c1ccc2c(c1)C=CC(C)(C)O2` (stereo not drawn) [Compound 7, 1-(2,2-Dimethyl-2H-chromen-6-yl)-3,7-dimethyl-octa-2,6-dien-1-ol], in series [1], the “α-Glucosidase Inhibition Type” value is given as “Noncompetitive”. In addition, the Ki in series [1] was 136 µM; in series [2], 25.4 µM. In series [2], the “Pancreatic Lipase Inhibition Type” value was “Competitive”. Also, the IC50 in series [3] came out at 134 ± 5.6 µM; in series [4], 33.1 ± 5.28 µM.
As for `CC(C)=CC(=O)c1ccccc1O` [Compound 5, 1-(2-Hydroxy-phenyl)-3-methyl-but-2-en-1-one], in series [2], the “Pancreatic Lipase Inhibition Type” value is “Noncompetitive” and the affinity, expressed as Ki, was 48.3 µM. In series [4], the IC50 is 48.3 ± 2.57 µM.
`CC(C)=CCC/C(C)=C/C(=O)c1cc(C(=O)O)cc(CC=C(C)C)c1O` [Compound 1, (2′E) cumenic acid]: in series [2], the Ki turned out to be 7.88 µM. In addition, in series [4], the IC50 was 33.8 ± 5.95 µM.
Broadly, the melting point is the temperature of the solid-liquid transition. For the compound `COc1ccc(C(=O)O)cc1CC=C(C)C` [Compound 4, 4-methoxy-3-(3′-methyl-2’-butenyl)benzoic acid], the melting point was in the range of 112 to 113 °C. The “ability to bind to the chemokine receptor CCR5” value with chemokine receptor CCR5 was “confirmed”. In addition, in series [4], the “Pancreatic Lipase IC50” value is given as “did not show any activity”.
Take `C[C@H]1O[C@H](O[C@H]2[C@H](O)[C@@H](O)[C@@H](O[C@H]3[C@H](O)[C@@H](O)C(O)O[C@@H]3CO)O[C@@H]2CO)[C@H](O)[C@@H](O)[C@@H]1N[C@H]1C=C(CO)[C@@H](O)[C@H](O)[C@H]1O` (stereo partly drawn) [Acarbose, reference compound]: the “α-Glucosidase Inhibition Type” value in series [1] is given as “Competitive”.
The compound `CC(C)=CCC/C(C)=C\C(=O)c1cc(C(=O)O)cc(CC=C(C)C)c1O` [Compound 2, (2′Z) cumenic acid] displayed a melting point of 132 to 134 °C. In series [2], the affinity corresponds to a Ki of 8.46 µM. The IC50 in series [4] was found to be 36.2 ± 5.05 µM.
For `O=C(/C=C/C=C/c1ccc2c(c1)OCO2)N1CCCCC1` [piperine], the “IC50 on AG” value with AG is 147 µg/mL (≈ 515 µM).
As to `CCCCC1(O)CC(C)(C)Oc2ccccc21` (stereo not drawn) [Compound 6, 4-Butyl-2,2-dimethyl-chroman-4-ol], in series [1], the “α-Glucosidase Inhibition Type” value is given as “mixed-type” and the Ki worked out at 51.3 µM. In addition, in series [2], the “Pancreatic Lipase Inhibition Type” value is “Noncompetitive” and the affinity corresponds to a Ki of 28.3 µM. Besides, 154 ± 4.65 µM corresponded to half-maximal inhibition in series [3] (IC50). In addition, 28.3 ± 2.9 µM corresponded to half-maximal inhibition in series [4] (IC50).
In the case of `COC(=O)c1cc(CC=C(C)C)c(O)c(C(=O)C=C(C)CCC=C(C)C)c1` [Compound 8, 3-(3,7-Dimethyl-octa-2,6-dienoyl)-4-hydroxy-5-(3-methyl-but-2-enyl)-benzoic acid methyl ester], in series [2], the “Pancreatic Lipase Inhibition Type” value is reported as “Mixed” and the Ki was determined as 42.8 µM. Besides, the IC50 in series [4] came out at 55.8 ± 2.98 µM.
As for `CO[C@H]1C=CC(=O)N1C(=O)CCc1ccccc1` [chaplupyrrolidone B], the IC50 with AG was 430 µM.
Consider `CC(C)=CCCC1(C)C=Cc2cc(C(=O)O)cc(CC=C(C)C)c2O1` (stereo not drawn) [Compound 3, gaudichaudianic acid], for which, in series [2], the “Pancreatic Lipase Inhibition Type” value is reported as “Competitive” and the Ki is 18 µM. For the same compound, half-maximal inhibition in series [4] (IC50) required 36.3 ± 6.5 µM.
Take `CCCCCCCCCCC[C@@H](C[C@@H]1OC(=O)[C@H]1CCCCCC)OC(=O)[C@H](CC(C)C)NC=O` [Orlistat, reference compound]: in series [2], the “Pancreatic Lipase Inhibition Type” value was “Irreversible”.
